Results as given in US10053422B2, “Compounds for the treatment of mTOR pathway related diseases” (Pitney Pharmaceuticals Pty Limited, priority 2012, dated 2018).
Entries after “also recorded” stand apart in the source; their conditions may differ. Like-named read-outs stand apart in the source and are kept apart here.

Legend:
[1] = tested on: HUVEC (human umbilical vein endothelial cells); assay: SRB cell proliferation assay, HUVEC; assay type: cell-based
Experimental: (§1) Cell proliferation was assessed using the sulforhodamine B (SRB) assay. Cells seeded in 96-well plate (2,000-3,000 cell/well) were treated with MPL (0, 1, 5, 10, 25, 50 and 100 μmol/L) for 72 h. Cells were then fixed, washed and stained with 100 μl of 0.4% (w/v) SRB dissolved in 1% acetic acid. Unbound dye was removed by five washes with 1% acetic acid before air drying. Bound SRB was solubilized with 100 μl of 10 mM Tris base (pH 10.5) and the absorbance read at 570 nm. Exactly the same procedure was used to assess MPL-SO2. Both agents were dissolved in ethanol and diluted with media to give the final concentrations required for cell culture assays.

OVCAR-3 cells = assay: SRB cell proliferation assay, OVCAR-3; assay type: cell-based, human
Experimental: as §1

A2780 cells = assay: SRB cell proliferation assay, A2780; assay type: cell-based, human
Experimental: as §1

[2] = tested on: CHO (Chinese hamster ovarian cells); assay: SRB cell proliferation assay, CHO; assay type: cell-based; settings: Cricetulus griseus
Experimental: as §1

nematodes = settings: previously shown; cited from earlier work
[3] = tested on: HT-29 5m11 cells (colorectal cancer); assay: SRB cell proliferation assay, HT-29 5m11; assay type: cell-based; settings: Homo sapiens; HT-29 5m11, colorectal cancer (Table 2); read-out: IC50 in suppressing proliferation
Experimental: as §1

MDA-MB-231 cells = assay: SRB cell proliferation assay, MDA-MB-231; assay type: cell-based; settings: Homo sapiens
Experimental: as §1

3T3 fibroblast = assay: SRB cell proliferation assay, 3T3; assay type: cell-based; settings: 3T3, fibroblast (Table 2); read-out: IC50 in suppressing proliferation
Experimental: as §1

1A9 cells = assay: SRB cell proliferation assay, 1A9; assay type: cell-based; settings: Homo sapiens
Experimental: as §1

U87 cells (glioblastoma) = assay: SRB cell proliferation assay, U87; assay type: cell-based; settings: Homo sapiens, U-87 MG
Experimental: as §1

[4] = tested on: HCT-116 cells (colorectal cancer); assay: SRB cell proliferation assay, HCT-116; assay type: cell-based; settings: Homo sapiens; HCT-116, colorectal cancer (Table 2); read-out: IC50 in suppressing proliferation
Experimental: as §1

T47-D cells = assay: SRB cell proliferation assay, T47-D; assay type: cell-based; settings: Homo sapiens, T47D, breast cancer (Table 2), read-out: IC50 in suppressing proliferation
Experimental: as §1

U87 glioma cells = assay: Autophagy (vacuoles, LC3-II), U87; assay type: cell-based; settings: U87 glioma cells
From the text: Autophagy is a characteristic of mTOR inhibition.
Concentration-dependent conversion of LC3-I to LC3-II confirms the increasing phenomenon of autophagy in these cells.

HeLa cells = assay: SRB cell proliferation assay, HeLa; assay type: cell-based; settings: Homo sapiens, epithelial (adenocarcinoma) (Table 2), read-out: IC50 in suppressing proliferation
Experimental: as §1

cancer cell lines = assay: SRB cell proliferation assay, range of cancer cell lines (general statements); assay type: cell-based
Experimental: as §1
In brief, MPL and MPL-SO2 were tested in vitro against a wide range of cancer cell-lines with extensively different disease characteristics. For further detailed studies, human ovarian cancer cell lines OVCAR-3 and A2780 were chosen. Additionally, normal human ovarian surface epithelial cells (HOSE) and were cultured in the presence of MPL (0, 5, 10, 25, 50 and 100 μM) for 72 h. Cell viability was assessed using Trypan blue assay (FIG. 9). Similarly, effect of MPL on the growth of normal epithelial, endothelial, embryonic and fetal cells were investigated (FIG. 10) while cell proliferation was assessed using the SRB assay (FIG. 11). Control (vehicle treated) cells were taken to present 100% proliferation and the MPL treated groups are expressed as percentage of control±SEM. Each drug concentration was tested in quadruplicate and each experiment was repeated at least twice. For statistical comparisons, each drug treated group is compared to the control group using Student's t test. To examine concentration dependent drug effect, analysis of variance (ANOVA) was used. P values are: *=<0.05; **<0.01 and ***=<0.001, **** p<0.0001. […] In order to find out if the MPL effect is mediated through the nicotinic acetyl choline receptor and in particular the nACHR7 subtype, cells were pretreated with antagonists and then exposed to MPL (FIG. 12).

MCF-7 cells = assay: SRB cell proliferation assay, MCF-7; assay type: cell-based; settings: Homo sapiens, MCF7
Experimental: as §1

T98G cells (glioma) = assay: SRB cell proliferation assay, T98G; assay type: cell-based; settings: Homo sapiens, glioma (Table 2), read-out: IC50 in suppressing proliferation
Experimental: as §1

[5] = tested on: HT-29 cells (colorectal cancer); assay: SRB cell proliferation assay, HT-29; assay type: cell-based; settings: Homo sapiens; HT-29, colorectal cancer (Table 2); read-out: IC50 in suppressing proliferation
Experimental: as §1

HaCat keratinocyte = assay: SRB cell proliferation assay, HaCat; assay type: cell-based; settings: Homo sapiens, keratinocyte (Table 2), read-out: IC50 in suppressing proliferation
Experimental: as §1

IGROV-1 cells = assay: SRB cell proliferation assay, IGROV-1; assay type: cell-based; settings: Homo sapiens; IGROV-1, ovarian cancer (Table 2); read-out: IC50 in suppressing proliferation
Experimental: as §1

LN-18 cells (glioma) = assay: SRB cell proliferation assay, LN-18; assay type: cell-based; settings: Homo sapiens; LN-18, glioma (Table 2); read-out: IC50 in suppressing proliferation
Experimental: as §1

SKOV-3 cells = assay: SRB cell proliferation assay, SKOV-3; assay type: cell-based; settings: Homo sapiens, SK-OV-3
Experimental: as §1

[6] = HUVEC = human umbilical vein endothelial cells (Table 3), read-out: IC50 μM HUVEC
[7] = OVCAR-3, human epithelial ovarian cancer (Table 3), read-out: IC50 μM OVCAR-3
[8] = A2780, human epithelial ovarian cancer (Table 3), read-out: IC50 μM A2780
[9] = CHO = Chinese hamster ovarian cells (Table 3), read-out: IC50 μM CHO

Which IC50 [1, 6] does the source give for `CC(C#N)(COc1cc(F)c(F)cc1C(F)(F)F)NC(=O)c1ccc(OC(F)(F)F)cc1` (stereo not shown) [AAD 1470] here?
The IC50 was 74 µM.

What about the IC50 (OVCAR-3 cells; [7]) of the same compound?
Its IC50 is 12.9 ± 0.3 µM.

And the “ratio of IC50 values (normal cell/cancer cell)” value (OVCAR-3 cells; results of Table 3)?
Its value is “particularly high activity”.

And the IC50 (A2780 cells; [8])?
Its IC50 is 19.5 ± 4.1 µM.

What about the IC50 [2, 9] of the same compound?
The IC50 was 32.2 µM.

With `C[C@@](C#N)(COc1cc(C#N)ccc1C(F)(F)F)NC(=O)c1ccc(SC(F)(F)F)cc1` [AAD 2224, N-[(1R)-1-cyano-2-(5-cyano-2-trifluoromethyl-phenoxy)-1-methyl-ethyl]-4-trifluoromethylsulfanyl-benzamide] as the compound, how does the IC50 [1, 6] read?
Its IC50 is 109 µM.

What about the IC50 (OVCAR-3 cells; [7]) of the same compound?
Its IC50 is 8 ± 0.7 µM.

What about the “potency of MPL-(R) compared with MPL-(S)” value (OVCAR-3 cells; results of Table 3) of the same compound?
The value was “equipotent”.

What about the “ratio of IC50 values (normal cell/cancer cell)” value (OVCAR-3 cells; results of Table 3) of the same compound?
Its value is “particularly high activity”.

And the IC50 (A2780 cells; [8])?
Its IC50 is 14.8 ± 0.45 µM.

And the anthelmintic activity (nematodes)?
The anthelmintic activity was “no anthelmintic activity”.

And the IC50 [2, 9]?
Its IC50 is 23.4 µM.

Which IC50 [3] does the source give for `C[C@](C#N)(COc1cc(C#N)ccc1C(F)(F)F)NC(=O)c1ccc(S(=O)(=O)C(F)(F)F)cc1` [MPL-SO2, monepantel sulphone] here?
The IC50 was 21.7 µM.

What about the IC50 ([1]; Homo sapiens, HUVEC (Table 2), read-out: IC50 in suppressing proliferation) of the same compound?
The IC50 was 47 µM.

What about the IC50 ([1]; Homo sapiens, HUVEC, 72 h, SRB assay (Table 1), read-out: IC50) of the same compound?
The IC50 was 47.8 µM.

What about the IC50 (MDA-MB-231 cells; MDA-MB-231, breast cancer (Table 2), read-out: IC50 in suppressing proliferation) of the same compound?
Its IC50 is 21.6 µM.

What about the IC50 (MDA-MB-231 cells; MDA-MB-231, breast cancer, 72 h, SRB assay (Table 1), read-out: IC50) of the same compound?
The IC50 was 23.6 µM.

And the IC50 (3T3 fibroblast)?
The IC50 was 11.2 ± 1.1 µM.

And the IC50 (OVCAR-3 cells; Homo sapiens, OVCAR-3, ovarian cancer (Table 2), read-out: IC50 in suppressing proliferation)?
Its IC50 is 5.5 ± 1.3 µM.

And the IC50 (OVCAR-3 cells; Homo sapiens, OVCAR-3, ovarian cancer, 72 h in vitro treatment, SRB assay (Table 1), read-out: IC50)?
Its IC50 is 5.5 µM.

And the IC50 (1A9 cells; 1A9, ovarian cancer (Table 2), read-out: IC50 in suppressing proliferation)?
Its IC50 is 3.42 ± 0.1 µM.

What about the IC50 (1A9 cells; 1A9, ovarian cancer, 72 h, SRB assay (Table 1), read-out: IC50) of the same compound?
Its IC50 is 4.8 µM.

And the IC50 (U87 cells (glioblastoma); U87, glioblastoma, 72 h, SRB assay (Table 1), read-out: IC50)?
Its IC50 is 20.5 µM.

And the IC50 (U87 cells (glioblastoma); U87, glioma (Table 2), read-out: IC50 in suppressing proliferation)?
The IC50 was 20.5 ± 1 µM.

And the IC50 (A2780 cells; Homo sapiens, A2780, ovarian cancer (Table 2), read-out: IC50 in suppressing proliferation)?
Its IC50 is 4.2 µM.

And the IC50 (A2780 cells; Homo sapiens, A2780, ovarian cancer, 72 h, SRB assay (Table 1), read-out: IC50)?
The IC50 was 4.2 µM.

What about the IC50 [4] of the same compound?
The IC50 was 22.5 ± 5.7 µM.

What about the IC50 (T47-D cells) of the same compound?
The IC50 was 10.2 ± 0.6 µM.

What about the “formation of vacuoles (autophagy)” value (U87 glioma cells) of the same compound?
Its value is “formation of vacuoles”.

And the IC50 ([2]; CHO (Table 2), read-out: IC50 in suppressing proliferation)?
Its IC50 is 73.7 ± 6 µM.

What about the IC50 ([2]; CHO, 72 h, SRB assay (Table 1), read-out: IC50) of the same compound?
Its IC50 is 73.7 µM.

And the IC50 (HeLa cells)?
The IC50 was 18.2 ± 2.6 µM.

What about the “viability of cancer cell-lines growing in culture” value (cancer cell lines) of the same compound?
The value was “reduced viability”.

What about the “potency compared with MPL in suppressing cancer cell proliferation” value (cancer cell lines; SRB proliferation assay) of the same compound?
Its value is “as potent as MPL; also recorded: as effective as MPL”.

What about the IC50 (MCF-7 cells; MCF-7, breast cancer (Table 2), read-out: IC50 in suppressing proliferation) of the same compound?
The IC50 was 8 ± 0.7 µM.

And the IC50 (MCF-7 cells; MCF-7, breast cancer, 72 h, SRB assay (Table 1), read-out: IC50)?
Its IC50 is 7.3 µM.

What about the IC50 (T98G cells (glioma)) of the same compound?
Its IC50 is 25.4 ± 0.28 µM.

What about the IC50 [5] of the same compound?
Its IC50 is 2.75 ± 0.7 µM.

And the IC50 (HaCat keratinocyte)?
Its IC50 is 42.7 ± 8 µM.

What about the IC50 (IGROV-1 cells) of the same compound?
Its IC50 is 4.4 ± 1.5 µM.

What about the IC50 (LN-18 cells (glioma)) of the same compound?
The IC50 was 6.64 ± 0.71 µM.

What about the IC50 (SKOV-3 cells; SKOV-3, ovarian cancer (Table 2), read-out: IC50 in suppressing proliferation) of the same compound?
Its IC50 is 26 µM.

What about the IC50 (SKOV-3 cells; SKOV-3, ovarian cancer, 72 h, SRB assay (Table 1), read-out: IC50) of the same compound?
The IC50 was 26 µM.

With `CC(C#N)(COc1cc(F)c(F)cc1Br)NC(=O)c1ccc(OC(F)(F)F)cc1` (stereo not shown) [AAD 1336] as the compound, how does the IC50 [1, 6] read?
The IC50 was 61.3 µM.

And the IC50 (OVCAR-3 cells; [7])?
Its IC50 is 14.7 ± 1.25 µM.

What about the “ratio of IC50 values (normal cell/cancer cell)” value (OVCAR-3 cells; results of Table 3) of the same compound?
The value was “particularly high activity”.

What about the IC50 (A2780 cells; [8]) of the same compound?
The IC50 was 17 ± 1.2 µM.

And the IC50 [2, 9]?
Its IC50 is 31.8 µM.

Which IC50 [1, 6] does the source give for `CC(C#N)(COc1cc(F)ccc1Cl)NC(=O)c1ccc(OC(F)(F)F)cc1` (stereo not shown) [AAD 004] here?
Its IC50 is 93 µM.

What about the IC50 (OVCAR-3 cells; [7]) of the same compound?
Its IC50 is 18.6 ± 2.4 µM.

And the IC50 (A2780 cells; [8])?
Its IC50 is 27.3 ± 0.5 µM.

What about the IC50 [2, 9] of the same compound?
Its IC50 is 57.3 µM.
